Reference: patent publication US20030129629A1, “Methods and compositions for the identification, assessment, prevention, and therapy of human cancers” (Millennium Pharmaceuticals, Inc., priority 2000, published 2003)
Like-named read-outs stand apart in the source and are kept apart here.

Test system: 60 cancer cell lines (NCI 60 cancer cell line series)
Assay: NCI-DTP in vitro cancer screen, sulforhodamine B (SRB) growth inhibition, 48 hour exposure
Type: cell-based, human
Experimental: Cancer Cell Line Preparation. Sixty cancer cell lines were obtained from the National Cancer Institute Developmental Therapeutics Program (NCI-DTP). Procedures for growing cells and testing compounds have been described previously (Scudiero et al., Cancer Res. 1988, 48:4827-4833; Stinson et al., Anticancer Res.; Myers et al., Electrophoresis 1997, 18:647-653). Cells are plated on day 0 at a density individualized for each cell line so that they will generally be sub-confluent at the end of the assay period. On day 1, a compound is added in the format for a duplicate-well, 5-dose, ten-fold interval dose response study.
No-drug, no-cell and no-growth controls are included. On day 3 the cells are processed for staining with sulforhodamine B (SRB), which reflects the amount of cell mass present at the end of a 48 hour exposure to the test agent. From dose response curves based on the SRB data, various parameters can be determined. […] More precisely, the quantity used in the calculation to be described is the potency measure −log{GI50}.
Activity database (A). […] This subset of compounds was selected from the larger 23,000 compound database available from the DTP. The compounds were selected on the basis of their known mechanism of action and chemical structure. The average potency −log{GI50} was extracted from the comma-delimited text files available through the Web at http://www.nci.nih.gov/intra/lmp/jnwbio.html. Subsequently, these −log{GI50} values were inspected manually and classified as indicating either Low, Medium or High sensitivity to each compound.

N[C@@H](Cc1ccc(N(CCCl)CCCl)cc1)C(=O)O [Melphalan]
classification of cell line as Low(1), Medium(2), High(3) sensitivity to compound: 2 | classification of cell line as Low(1), Medium(2), High(3) sensitivity to compound (Breast BT-549 CL5013): 2 | classification of cell line as Low(1), Medium(2), High(3) sensitivity to compound (Breast HS-578T CL5006): 2 | classification of cell line as Low(1), Medium(2), High(3) sensitivity to compound (Breast MCF7(I) CL5001): 3 | classification of cell line as Low(1), Medium(2), High(3) sensitivity to compound (Breast MCF7/ADRr CL5002): 2 | classification of cell line as Low(1), Medium(2), High(3) sensitivity to compound (Breast MDA-MB-231 CL5005): 2 | classification of cell line as Low(1), Medium(2), High(3) sensitivity to compound (Breast MDA-MB-435 CL5011): 2 | classification of cell line as Low(1), Medium(2), High(3) sensitivity to compound (Breast MDA-N CL5012): 2 | classification of cell line as Low(1), Medium(2), High(3) sensitivity to compound (Breast T-47D CL5014): 2 | classification of cell line as Low(1), Medium(2), High(3) sensitivity to compound (Colon COLO-250 CL4010): 2 | classification of cell line as Low(1), Medium(2), High(3) sensitivity to compound (Colon HCC-2998 CL4002): 2 | classification of cell line as Low(1), Medium(2), High(3) sensitivity to compound (Colon HCT-15 CL4015): 2 | classification of cell line as Low(1), Medium(2), High(3) sensitivity to compound (Colon HCT-116 CL4003): 2 | classification of cell line as Low(1), Medium(2), High(3) sensitivity to compound (Colon HT29(I) CL4001): 1 | classification of cell line as Low(1), Medium(2), High(3) sensitivity to compound (Colon KM12 CL4017): 1 | classification of cell line as Low(1), Medium(2), High(3) sensitivity to compound (Colon SW-620 CL4009): 2 | classification of cell line as Low(1), Medium(2), High(3) sensitivity to compound (Leukemia CCRF-CEM(I) CL7003): 3 | classification of cell line as Low(1), Medium(2), High(3) sensitivity to compound (Leukemia HL-60(I) CL7008): 3 | classification of cell line as Low(1), Medium(2), High(3) sensitivity to compound (Leukemia K562(I) CL7005): 2 | classification of cell line as Low(1), Medium(2), High(3) sensitivity to compound (Leukemia MOLT-4 CL7006): 3 | classification of cell line as Low(1), Medium(2), High(3) sensitivity to compound (Leukemia RPMI-8226(I) CL7010): 2 | classification of cell line as Low(1), Medium(2), High(3) sensitivity to compound (Leukemia SR CL7019): 3 | classification of cell line as Low(1), Medium(2), High(3) sensitivity to compound (Melanoma LOX IMVI CL10001): 2 | classification of cell line as Low(1), Medium(2), High(3) sensitivity to compound (Melanoma M14 CL10014): 2 | classification of cell line as Low(1), Medium(2), High(3) sensitivity to compound (Melanoma MALME-3M CL10002): 2 | classification of cell line as Low(1), Medium(2), High(3) sensitivity to compound (Melanoma SK-MEL-2 CL10005): 2 | classification of cell line as Low(1), Medium(2), High(3) sensitivity to compound (Melanoma SK-MEL-5 CL10007): 2 | classification of cell line as Low(1), Medium(2), High(3) sensitivity to compound (Melanoma SK-MEL-28 CL10008): 2 | classification of cell line as Low(1), Medium(2), High(3) sensitivity to compound (Melanoma UACC-62 CL10020): 3 | classification of cell line as Low(1), Medium(2), High(3) sensitivity to compound (Melanoma UACC-257 CL10021): 2 | classification of cell line as Low(1), Medium(2), High(3) sensitivity to compound (NSCLC A549/ATCC CL1004): 2 | classification of cell line as Low(1), Medium(2), High(3) sensitivity to compound (NSCLC EKVX CL1008): 2 | classification of cell line as Low(1), Medium(2), High(3) sensitivity to compound (NSCLC HOP-62 CL1026): 2 | classification of cell line as Low(1), Medium(2), High(3) sensitivity to compound (NSCLC HOP-92 CL1029): 2 | sensitivity classification Low(1)/Medium(2)/High(3) (NSCLC NCI-H23(I) CL1001): 2 | classification of cell line as Low(1), Medium(2), High(3) sensitivity to compound (NSCLC NCI-H226 CL1013): 2 | sensitivity classification Low(1)/Medium(2)/High(3) (NSCLC NCI-H332M CL1017): 1 | sensitivity classification Low(1)/Medium(2)/High(3) (NSCLC NCI-H460 CL1021): 3 | sensitivity classification Low(1)/Medium(2)/High(3) (NSCLC NCI-H522 CL1003): 2 | sensitivity classification Low(1)/Medium(2)/High(3) (Ovarian IGROV1 CL6010): 2 | sensitivity classification Low(1)/Medium(2)/High(3) (Ovarian OVCAR-3 CL6001): 2 | sensitivity classification Low(1)/Medium(2)/High(3) (Ovarian OVCAR-4 CL6002): 2 | sensitivity classification Low(1)/Medium(2)/High(3) (Ovarian OVCAR-5 CL6003): 2 | sensitivity classification Low(1)/Medium(2)/High(3) (Ovarian OVCAR-8 CL6005): 2 | sensitivity classification Low(1)/Medium(2)/High(3) (Ovarian SK-OV-3 CL6011): 2 | sensitivity classification Low(1)/Medium(2)/High(3) (Prostate DU-145 CL11003): 2 | sensitivity classification Low(1)/Medium(2)/High(3) (Prostate PC-3(I) CL11001): 2 | sensitivity classification Low(1)/Medium(2)/High(3) (Renal 786-0 CL9018): 2 | sensitivity classification Low(1)/Medium(2)/High(3) (Renal A498 CL9013): 1 | sensitivity classification Low(1)/Medium(2)/High(3) (Renal ACHN CL9023): 3 | sensitivity classification Low(1)/Medium(2)/High(3) (Renal CAKI-1 CL9015): 3 | sensitivity classification Low(1)/Medium(2)/High(3) (Renal RXF-393 CL9016): 2 | sensitivity classification Low(1)/Medium(2)/High(3) (Renal SN12C CL9008): 2 | sensitivity classification Low(1)/Medium(2)/High(3) (Renal TK10 CL9024): 1 | sensitivity classification Low(1)/Medium(2)/High(3) (Renal UO-31 CL9004): 2
